# From PubChem BioAssay AID179 (DTP/NCI, 2004)
# “And” between values parts separate entries of the source, which are not always exact repeats. Equal entries are not always repeated. The source made the active and inactive calls.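 The calls were made as follows: active = compounds giving half or more protection of infected cells from virus-caused growth loss, again on retest; inactive = the rest.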
# Tested on: CEM cells HIV-1 protection, formazan growth assay
# Test: NCI AIDS Antiviral Assay
# Details: for IC50: measured here: growth of uninfected CEM cells
# How it was run: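 Human CEM cells, uninfected and HIV-1-infected, exposed to five drug concentrations; growth measured by soluble formazan assay and scored as percent protection from infection, with protecting compounds retested.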
Compound,EC50 [µM],IC50,outcome
O=C([O-])c1n[nH]c([O-])c1N=Nc1ccc(/C=C/c2ccc(N=Nc3c(C(=O)[O-])n[nH]c3[O-])cc2S(=O)(=O)[O-])c(S(=O)(=O)[O-])c1.[Cu+2].[Cu+2].[Na+],> 50.1,> 50.1 µM,
CCCCCCCC(=O)OCC1OC(n2cc(F)c(=O)[nH]c2=O)C(NC(=O)OCc2ccccc2)C(O)C1O (configuration not stated),> 64.6,56.2 µM,
O=c1cc(NNc2cccc(F)c2)[nH]c(=S)[nH]1,> 200,87.1 µM,
COc1cc(C(=O)Nc2c3ccccc3nc3ccccc23)cc(OC)c1OC,> 200,> 200 µM,
CC(C)[Si](OC12CCC(CC1O)CC2C(=O)O)(C(C)C)C(C)C (configuration not stated),> 200,22.4 µM,
C[CH2][Sn]([CH2]C)([S]CCS(=O)(=O)O)[S]CCS(=O)(=O)O,> 200,3.72 µM,
NC(=O)OCC(COc1ccc(Cl)cc1)OC(=O)c1ccccc1Cl (configuration not stated),> 93.3,70.8 µM,
CCOC(=O)c1nc2ccc(OC)cc2c2c1Cc1ccccc1-2,> 22.4,> 22.4 µM,
O=C(OCC(Cl)(Cl)Cl)O[C@@H]1CCCC1(c1ccccc1)c1ccccc1,> 135,49 µM,
C/C(CC(=O)NCCc1ccccc1)=N\NC(=O)C[n+]1ccccc1,> 95.5,> 95.5 µM,
Cc1nnc2sc(=S)[nH]n12,,,inactive
CC(C)(C)OC(=O)NCCCCC(N)C(N)=O (configuration not stated),> 200,> 200 µM,
S=c1cn[nH]c2c(Cl)cccc12,> 107,81.3 µM,
CN1C(=O)N/C(=C\c2ccc(S(=O)(=O)NN)cc2)C1=O,> 200,> 100 µM,
CS(=O)(=O)O/N=c1/cc(-c2ccccc2)oc2ccccc12,> 200,> 200 µM,
CC(C)OP(=O)(OC(C)C)C(N(C)C)P(=O)(OC(C)C)OC(C)C.[CH3][Sn]([CH3])([Cl])[Cl],> 302,17.4 µM,
O=S(=O)(O)c1ccc(Nc2ccnc3cc(Cl)ccc23)cc1,> 200,> 200 µM,
N#CCCC1(CCC#N)CCc2ccccc2C1=O,> 200,> 200 µM,
O=C1CSC(c2c[nH]c3ccccc23)N1c1cccc(Cl)c1 (configuration not stated),> 21.9,> 21.9 µM,
CCN(CC)C(=S)N/N=C/c1cc([N+](=O)[O-])ccc1O,> 200,3.63 µM,
O=C(Nc1cc2cc([N+](=O)[O-])ccc2oc1=O)c1cccs1,> 61.7,> 61.7 µM,
O=S(=O)(O)C(Cc1nc2ccccc2[nH]1)S(=O)(=O)OCCC1S(=O)(=O)OCCOS1(=O)=O (configuration not stated),> 200,107 µM,

Compound,EC50 [µM],IC50,outcome
COc1ccc(OC)c(NC(=S)N/N=C/c2cccc3ccccc23)c1,> 200,1.05 µM,
CC(C)CC(=O)NC(NC(C)C)(C(F)(F)F)C(F)(F)F,> 200,> 200 µM,
CC1=NCCc2c1[nH]c1cc(O)ccc21,> 398,> 100 µM,
C=CC(C)(C)n1cc(C2=C(O)C(=O)C(c3cn(C(C)(C)C=C)c4ccccc34)=C(OC(C)=O)C2=O)c2ccccc21,> 20,1.07 µM,
COc1ccc(/C=C(\C#N)c2ccc([N+](=O)[O-])cc2)cc1[N+](=O)[O-],182,195 µM,
c1ccc2c(c1)oc1cc3c(cc12)nnc1cccn13,> 200,> 200 µM,
C=C1c2nc3ccccc3n2C=C(c2ccccc2)N1c1ccccc1,> 200,3.98 µM,
c1ccc2cc3c(cc2c1)Cn1c-3nc2ccccc21,> 200,> 200 µM,
Brc1ncnc2c1ncn2C1CCCS1 (configuration not stated),,,inactive
CCOC(=O)Nc1ccc(C(=O)/C=C\c2ccc(N(CC)CC)cc2)cc1,> 200,3.72 µM,
CCOC(=O)c1nc2ccccc2n(CC)c1=O,> 200,79.4 µM,
Nc1cc(N)c(N=Nc2ccc(/C=C/c3ccc(N=Nc4c(N)cc(N)cc4C(=O)O)cc3S(=O)(=O)O)c(S(=O)(=O)O)c2)c(C(=O)O)c1,> 178,170 µM,
CC(=O)N(O)CCCCCNC(=O)CCC(=O)N(O)CCCCCNC(=O)CCC(=O)N(O)CCCCCN,> 110,4.57 µM and 3.63 µM,
O=C1c2cc3ccccc3cc2C2(c3ccc(Cl)cc3)NCCN12 (configuration not stated),> 200,32.4 µM,
O=c1oc2cc(O)ccc2c(O)c1C(c1ccccc1)c1c(O)c2ccc(O)cc2oc1=O,> 200,178 µM,
COc1cc2c(c(OC)c1OC)C1CCCCC1SCC2O (configuration not stated),> 398,77.6 µM,
COc1cc2nc3c(nc2cc1OC)-c1ccccc1C3=O,3.02,9.33 µM,
CN=c1ncn(C)c2ncn(C/C=C(\C)CC[C@@]3(C)C(C)CCC4(O)C3CCCC4(C)C)c12 (some centres not stated),,,inactive
CCCCCCCCCCCCCCCc1ccc(OCC(O)CO)cc1 (configuration not stated),> 19.1,> 19.1 µM,
CC1CCC(=NNS(=O)(=O)c2ccc(N)cc2)CC1 (configuration not stated),> 129,> 129 µM,
O=C(c1ccccc1)C1C(=O)c2ccccc2C1=O,> 105,> 105 µM,
CCOC(=O)c1ccc(CSc2ccccc2)cc1,> 26.3,> 26.3 µM,

Compound,EC50 [µM],IC50,outcome
COC(=O)c1coc(CC/C(C)=C/c2ccccc2)n1,> 200,126 µM,
O=c1n(-c2ccccc2)c(=O)n2n1Cc1cc3ccccc3cc1-2,> 79.4,> 79.4 µM,
CC1SC(=S)N(c2ccc(Cl)cc2)C1=O (configuration not stated),> 138,67.6 µM,
CC1(C)COC(c2cccc(C(=O)c3ccccc3)c2)=N1,> 200,57.5 µM,
COC(=O)[C@@]1(C)CCC[C@]2(C)C3(O)C(C)C(=O)O[C@H](c4ccoc4)C3C(OC(C)=O)C21O (some centres not stated),> 200,> 200 µM,
O=c1ccc2c(-c3ccccc3O)c3ccc(O)cc3oc-2c1,> 95.5,17.4 µM,
CC(C)=CCC[C@@H](C)C1=C(O)C(O)C(C)=C2N=C(c3ccccc3)C(=O)OC21 (some centres not stated),> 200,3.8 µM,
COc1cccc(C2SC(N)=Nc3c2c(C)nn3C(=O)c2ccccc2O)c1 (configuration not stated),> 2,0.17 µM,
COc1cccc(C=O)c1[O-].COc1cccc(C=O)c1[O-].[Ni+2],> 50.1,35.5 µM,
CC(C)OP(=O)(CP(=O)(OC(C)C)OC(C)C)CP(=O)(OC(C)C)OC(C)C,> 537,93.3 µM,
O=C1CC(c2ccoc2)NC(=O)N1CCCl (configuration not stated),> 200,> 200 µM,
Cc1ccc2nc3c(C)cc(=O)cc-3sc2c1,> 77.6,50.1 µM,
CC1(C)CNC(=O)C(C)(C2(C)NC(C)(C)CNC2=O)N1 (configuration not stated),> 200,> 200 µM,
Cc1cccc(C)c1NC(=S)N/C=C(\C#N)C(N)=O,> 200,> 200 µM,
O=C1CCCCCCCCCCC1CN1CCOCC1 (configuration not stated),> 72.4,> 72.4 µM,
O=C(ONC(=O)[C@H]1C2C=CC(C2)[C@@H]1C(=O)NOC(=O)c1ccccc1)c1ccccc1,> 200,5.37 µM,
CCOP(=O)(OCC)/C(C#N)=C/c1cccn1N(C)C,> 257,245 µM,
CC(Cn1c(=O)oc2ccccc21)N(C)C (configuration not stated),> 200,> 200 µM,
CCCCN1C(CO)C(O)C(O)C(O)C1CO (configuration not stated),> 200,> 200 µM,
CCc1cccc(C(C)C)c1NC(=O)C(=O)Nn1c(=S)[nH]c2ccccc2c1=O,> 123,> 123 µM,
CC(C)(C)N1C[C@H](C(=O)c2ccccc2)[C@@H]1c1ccccc1,> 33.9,> 33.9 µM,
